In ChEMBL document CHEMBL1268952, “Design, synthesis, and evaluation of indolinones as inhibitors of the transforming growth factor β receptor I (TGFβRI)” (J Med Chem, 2010) one finds EC50 and IC50 data, which are given here for 35 compounds.

Structures are written as SMILES.

Test [1] deals with T1, TGF-beta receptor type-1 (Homo sapiens, UniProt P36897).
T1 sequence (P36897 whole entry): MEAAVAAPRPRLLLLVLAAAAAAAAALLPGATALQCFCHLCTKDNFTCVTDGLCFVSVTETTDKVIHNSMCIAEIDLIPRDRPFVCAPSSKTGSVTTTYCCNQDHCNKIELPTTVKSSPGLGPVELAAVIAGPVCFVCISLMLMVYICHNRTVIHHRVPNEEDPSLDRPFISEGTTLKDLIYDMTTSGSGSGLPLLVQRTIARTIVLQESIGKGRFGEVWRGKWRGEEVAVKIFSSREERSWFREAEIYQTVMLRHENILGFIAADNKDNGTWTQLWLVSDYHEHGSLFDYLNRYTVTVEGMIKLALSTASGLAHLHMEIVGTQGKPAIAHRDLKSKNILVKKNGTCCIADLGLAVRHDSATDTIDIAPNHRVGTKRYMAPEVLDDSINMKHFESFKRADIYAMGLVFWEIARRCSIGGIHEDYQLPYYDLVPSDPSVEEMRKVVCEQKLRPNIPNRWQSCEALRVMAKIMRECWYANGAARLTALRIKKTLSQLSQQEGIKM
Nature of the test: Inhibition of TGFbeta receptor in human HaCaT cells assessed as Smad phosphorylation by ELISA. It is filed as cell-based.

Test [2] addresses T1, TGF-beta receptor type-1. The test is described as follows: Inhibition of TGFbeta receptor.
The target of test [3] is Platelet-derived growth factor receptor alpha (Homo sapiens, UniProt P16234). The test is described as follows: Inhibition of PDGFRalpha.
Sequence of Platelet-derived growth factor receptor alpha (P16234 whole entry): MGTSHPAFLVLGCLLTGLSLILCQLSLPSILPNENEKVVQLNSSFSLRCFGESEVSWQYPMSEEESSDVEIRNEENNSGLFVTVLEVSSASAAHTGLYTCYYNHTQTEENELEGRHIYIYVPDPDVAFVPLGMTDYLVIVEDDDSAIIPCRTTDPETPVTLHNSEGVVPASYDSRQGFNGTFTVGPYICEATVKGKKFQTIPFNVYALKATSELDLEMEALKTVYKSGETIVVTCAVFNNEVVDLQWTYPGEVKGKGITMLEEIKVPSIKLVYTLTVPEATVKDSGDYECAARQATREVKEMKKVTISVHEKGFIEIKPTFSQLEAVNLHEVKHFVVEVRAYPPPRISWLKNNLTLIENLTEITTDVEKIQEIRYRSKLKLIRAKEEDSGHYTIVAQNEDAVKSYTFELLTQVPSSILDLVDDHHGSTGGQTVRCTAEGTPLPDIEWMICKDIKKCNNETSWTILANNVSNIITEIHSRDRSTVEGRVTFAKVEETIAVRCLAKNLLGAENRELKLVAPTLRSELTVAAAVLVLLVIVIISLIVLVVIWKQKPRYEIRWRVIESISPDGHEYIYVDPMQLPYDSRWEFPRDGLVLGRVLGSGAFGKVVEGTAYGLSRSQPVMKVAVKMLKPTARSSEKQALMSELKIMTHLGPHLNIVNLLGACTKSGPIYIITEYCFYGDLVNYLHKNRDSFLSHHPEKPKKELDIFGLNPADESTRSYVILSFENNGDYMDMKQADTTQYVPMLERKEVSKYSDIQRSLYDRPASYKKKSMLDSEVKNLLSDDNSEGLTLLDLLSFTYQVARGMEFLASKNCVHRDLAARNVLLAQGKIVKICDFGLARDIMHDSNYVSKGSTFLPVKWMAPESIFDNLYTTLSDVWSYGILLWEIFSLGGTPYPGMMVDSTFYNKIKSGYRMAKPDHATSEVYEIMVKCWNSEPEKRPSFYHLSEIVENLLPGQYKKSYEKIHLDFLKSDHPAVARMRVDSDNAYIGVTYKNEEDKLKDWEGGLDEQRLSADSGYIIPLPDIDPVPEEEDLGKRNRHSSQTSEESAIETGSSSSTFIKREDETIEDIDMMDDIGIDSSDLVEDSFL
The next test relates to HaCaT. Nature of the test: Cytotoxicity against human HaCaT cells.

`O=C1Nc2cc(C(=O)N3CCCC3)ccc2/C1=C(/Nc1ccc(CN2CCCCC2)cc1)c1ccccc1`: the EC50 on TGF-beta receptor type-1 [1] was determined as 696 nM. At TGF-beta receptor type-1 [2], this compound gave an IC50 of 245 nM.

Compound `CCN(C)C(=O)c1ccc2c(c1)NC(=O)/C2=C(\Nc1ccc(C(=O)OC)cc1)c1ccccc1` showed an IC50 at TGF-beta receptor type-1 [2] of 1970 nM.

Turning to `CC(C)NC(=O)c1ccc2c(c1)NC(=O)/C2=C(\Nc1ccc(CN2CCCCC2)cc1)c1ccccc1`, the EC50 at TGF-beta receptor type-1 [1] worked out at 708 nM. The same compound showed an IC50 at TGF-beta receptor type-1 [2] of 318 nM.

Take `CCNC(=O)c1ccc2c(c1)NC(=O)/C2=C\Nc1ccc(N(CCCN(C)C)C(C)=O)cc1`: the EC50 on TGF-beta receptor type-1 [1] is 597 nM. The compound also gave an IC50 on TGF-beta receptor type-1 [2] of 17 nM.

Consider `CCN(CC)C(=O)c1ccc2c(c1)NC(=O)/C2=C(\Nc1ccc(CN2CCCCC2)cc1)c1ccccc1`, for which the IC50 on TGF-beta receptor type-1 [2] is 625 nM.

Consider `CCN(C)C(=O)c1ccc2c(c1)NC(=O)/C2=C(\Nc1ccc(N(CCN(C)C)S(C)(=O)=O)cc1)c1ccccc1`, for which the EC50 at TGF-beta receptor type-1 [1] stood at 209 nM. The IC50 against TGF-beta receptor type-1 [2] was found to be 7 nM.

As for `NC(=O)c1ccc2c(c1)NC(=O)/C2=C(\Nc1ccc(CN2CCCCC2)cc1)c1ccccc1`, the EC50 at TGF-beta receptor type-1 [1] is above 50000 nM. In addition, the midpoint of inhibition at TGF-beta receptor type-1 [2], the IC50, lay at 369 nM.

On TGF-beta receptor type-1 [2], `CCN(CC)Cc1cccc(N/C(=C2\C(=O)Nc3cc(C(=O)N(C)CC)ccc32)c2ccccc2)c1` yielded an IC50 of 616 nM.

For `CCN(C)C(=O)c1ccc2c(c1)NC(=O)/C2=C(\Nc1ccc(N(CCCN(C)C)C(C)=O)cc1)c1ccccc1`, the EC50 on TGF-beta receptor type-1 [1] was 411 nM. Besides, the IC50 against TGF-beta receptor type-1 [2] was 9 nM.

Turning to `CCNC(=O)c1ccc2c(c1)NC(=O)/C2=C(\Nc1ccc(CCN(C)C)cc1)c1ccccc1`, on TGF-beta receptor type-1 [1], the EC50 worked out at 135 nM. On TGF-beta receptor type-1 [2], this compound yielded an IC50 of 47 nM.

Regarding `CCNC(=O)c1ccc2c(c1)NC(=O)/C2=C(\Nc1ccc(CN2CCCCC2)cc1)c1ccccc1`, the EC50 at TGF-beta receptor type-1 [1] amounted to 75 nM. On TGF-beta receptor type-1 [2], it took 24 nM to reach half-maximal inhibition (IC50).

Regarding `CCNC(=O)c1ccc2c(c1)NC(=O)/C2=C(\Nc1ccc(N(C)C(=O)CN2CCN(C)CC2)cc1)c1ccccc1`, the EC50 on TGF-beta receptor type-1 [1] was 1370 nM. In addition, inhibition against TGF-beta receptor type-1 [2] was half-maximal at 9 nM (IC50).

Regarding `CCNC(=O)c1ccc2c(c1)NC(=O)/C2=C(\Nc1ccc(N(CCN(C)C)C(C)=O)cc1)c1ccccc1`, the 50% effective concentration (EC50) at TGF-beta receptor type-1 [1] was determined as 1070 nM. The same compound registered a half-inhibitory concentration (IC50) against TGF-beta receptor type-1 [2] of 3 nM.

For `CCN(C)C(=O)c1ccc2c(c1)NC(=O)/C2=C(\NC1CCCCC1)c1ccccc1`, the EC50 on TGF-beta receptor type-1 [1] was above 10000 nM. Moreover, the IC50 on TGF-beta receptor type-1 [2] was above 50000 nM; in test [3] it was above 5 µM.

Regarding `CCN(C)C(=O)c1ccc2c(c1)NC(=O)/C2=C(\Nc1ccc(N(C)C(=O)CN(C)C)cc1)c1ccccc1`, the EC50 at TGF-beta receptor type-1 [1] was 382 nM. This compound also showed an IC50 at TGF-beta receptor type-1 [2] of 29 nM.

Take `CCN(C)C(=O)c1ccc2c(c1)NC(=O)/C2=C(\Nc1ccc(N(CC(=O)N(C)C)S(C)(=O)=O)cc1)c1ccccc1`: the EC50 on TGF-beta receptor type-1 [1] was above 3000 nM. The compound further returned an IC50 against TGF-beta receptor type-1 [2] of 86 nM.

`CCN(C)C(=O)c1ccc2c(c1)NC(=O)/C2=C(\Nc1ccc(N(C)S(C)(=O)=O)cc1)c1ccccc1`: the EC50 at TGF-beta receptor type-1 [1] is above 10000 nM. Besides, the IC50 on TGF-beta receptor type-1 [2] worked out at 231 nM.

For `CCN(CC)CCNC(=O)c1ccc(N/C(=C2\C(=O)Nc3cc(C(=O)N(C)CC)ccc32)c2ccccc2)cc1`, the EC50 at TGF-beta receptor type-1 [1] is 542 nM. At TGF-beta receptor type-1 [2], this compound returned an IC50 of 64 nM.

The compound `CNC(=O)c1ccc2c(c1)NC(=O)/C2=C(\Nc1ccc(CN2CCCCC2)cc1)c1ccccc1` came in with an IC50 on TGF-beta receptor type-1 [2] of 32 nM.

Turning to `CCNC(=O)c1ccc2c(c1)NC(=O)/C2=C\Nc1ccc(N(C)C(=O)CN2CCN(C)CC2)cc1`, the EC50 on TGF-beta receptor type-1 [1] was 2180 nM. Besides, the 50% inhibitory concentration (IC50) against TGF-beta receptor type-1 [2] is 15 nM; in test [3], above 5 µM.

`CCNC(=O)c1ccc2c(c1)NC(=O)/C2=C(\Nc1ccc(N(CCCN(C)C)C(C)=O)cc1)c1ccccc1`: the EC50 on TGF-beta receptor type-1 [1] amounted to 1250 nM. For the same compound, the IC50 against TGF-beta receptor type-1 [2] amounted to 3 nM.

For the compound `CCNC(=O)c1ccc2c(c1)NC(=O)/C2=C(\Nc1ccc(C(=O)NCCN(CC)CC)cc1)c1ccccc1`, on TGF-beta receptor type-1 [1], the EC50 was 505 nM. On TGF-beta receptor type-1 [2], this compound came in with an IC50 of 33 nM.

On to `CCNC(=O)c1ccc2c(c1)NC(=O)/C2=C\Nc1ccc(CN2CCCCC2)cc1`, for which, at TGF-beta receptor type-1 [1], the EC50 was 376 nM. Also, inhibition against TGF-beta receptor type-1 [2] was half-maximal at 69 nM (IC50).

Take `CCN(C)C(=O)c1ccc2c(c1)NC(=O)/C2=C(\Nc1ccc(CCN(C)C)cc1)c1ccccc1`: the EC50 at TGF-beta receptor type-1 [1] was found to be 259 nM. Moreover, the IC50 was 64 nM at TGF-beta receptor type-1 [2] and above 1000 nM in the test on HaCaT.

Consider `CCN(C)C(=O)c1ccc2c(c1)NC(=O)/C2=C(\NC1CCN(C)CC1)c1ccccc1`, for which, at TGF-beta receptor type-1 [1], the EC50 was above 10000 nM. For the same compound, the IC50 at TGF-beta receptor type-1 [2] was above 50000 nM; in test [3], above 5 µM.

As to `CCN(C)C(=O)c1ccc2c(c1)NC(=O)/C2=C(\Nc1ccc(N(C)C(=O)CN2CCN(C)CC2)cc1)c1ccccc1`, the EC50 on TGF-beta receptor type-1 [1] is 833 nM. In addition, the IC50 against TGF-beta receptor type-1 [2] amounted to 7 nM.

For the compound `O=C1Nc2cc(C(=O)NCCO)ccc2/C1=C(/Nc1ccc(CN2CCCCC2)cc1)c1ccccc1`, the EC50 on TGF-beta receptor type-1 [1] was above 50000 nM. On TGF-beta receptor type-1 [2], this compound returned an IC50 of 430 nM.

Regarding `CCNC(=O)c1ccc2c(c1)NC(=O)/C2=C\Nc1ccc(N(C)C(=O)CN(C)C)cc1`, the EC50 on TGF-beta receptor type-1 [1] is 4360 nM. For the same compound, the IC50 at TGF-beta receptor type-1 [2] stood at 52 nM.

`CCCCNC(=O)c1ccc2c(c1)NC(=O)/C2=C(\Nc1ccc(CN2CCCCC2)cc1)c1ccccc1`: the EC50 on TGF-beta receptor type-1 [1] amounted to 1060 nM. Half-maximal inhibition against TGF-beta receptor type-1 [2] (IC50) required 91 nM.

As to `CN(C)C(=O)c1ccc2c(c1)NC(=O)/C2=C(\Nc1ccc(CN2CCCCC2)cc1)c1ccccc1`, on TGF-beta receptor type-1 [1], the EC50 worked out at 246 nM. Also, at TGF-beta receptor type-1 [2], it took 35 nM to reach half-maximal inhibition (IC50).

For `O=C1Nc2cc(C(=O)NCc3ccccc3)ccc2/C1=C(/Nc1ccc(CN2CCCCC2)cc1)c1ccccc1`, inhibition on TGF-beta receptor type-1 [2] was half-maximal at 1530 nM (IC50).

Consider `CCN(C)C(=O)c1ccc2c(c1)NC(=O)/C2=C(\Nc1ccc(C(=O)O)cc1)c1ccccc1`, for which, on TGF-beta receptor type-1 [2], the IC50 is 782 nM. This IC50 is about 2-fold lower than that of the compound before.

Take `CCN(C)C(=O)c1ccc2c(c1)NC(=O)/C2=C(\Nc1ccc(N(CCN(C)C)C(C)=O)cc1)c1ccccc1`: the EC50 at TGF-beta receptor type-1 [1] came out at 102 nM. This compound came in with an IC50 at TGF-beta receptor type-1 [2] of 8 nM.

In the case of `CCNC(=O)c1ccc2c(c1)NC(=O)/C2=C(\Nc1ccc(N(C)C(=O)CN(C)C)cc1)c1ccccc1`, the EC50 at TGF-beta receptor type-1 [1] was 3380 nM. The same compound registered an IC50 against TGF-beta receptor type-1 [2] of 35 nM.

In the case of `CCN(C)C(=O)c1ccc2c(c1)NC(=O)/C2=C(\Nc1ccccc1)c1ccccc1`, the IC50 on TGF-beta receptor type-1 [2] was 2590 nM; in test [3] it was above 5 µM.
